According to patent US4784992A, “Phosphorylalkanolamide derivatives of L-carnitine and pharmaceutical compositions containing same” (Sigma-Tau Industrie Farmaceutiche Riunite S.p.A., priority 1986, dated 1988):

Tests used:
[1] = tested on: normal mouse's behaviour; experiment: Irwin's test in the mouse (normal mouse's behaviour); assay type: in vivo; conditions: 1000 mg/kg e.p.; 4 M + 4 F
Method: (§1) The effects of L-carnitine phosphorylethanolamide to Irwin's test in the mouse and acute toxicity after endoperitoneal administration of the substance, always in the mouse, were also evaluated.

[2] = tested on: erucic acid-induced myocardial steatosis; experiment: erucic acid-induced myocardial steatosis model in the rat (erucic acid-rich rape oil diet); assay type: in vivo, rat (male Wistar); conditions: for Cholesterol / ATP: n=6; for Cholesterol: controls 32.7 ±11.95; for ATP: controls 34.2 ±8.73
From the text: (§2) A myocardial steatosis model, in which an L-carnitine positive effect was already described, was used in the rat. The steatosis was induced by adding, for five (5) consecutive days, erucic acid-rich rape oil in the rats' normal daily diet, according to the method described by Branca et al. (Internat., Vit. Nutr. Res., 47, 162-166, 1977). Trial-groups of six (6) male Wistar rats, weighing from 190 g to 220 g, were used.
These effects were statistically significant with Student's t test.

[3] = solubility and appearance of the inner salt; assay type: physicochemical
From the text: A 20% aqueous solution of the calcium salt of L-carnitine phosphorylethanolamide was passed through AMBERLITE IR 120 activated with a 10% solution of hydrochloric acid. The eluate was neutralized with AMBERLITE IR 45 resin. The solution was then concentrated to dryness under vacuum. A white product crystallized which was taken up with warm ethanol.

[4] = acute toxicity in the mouse (mortality curve and LD50); assay type: in vivo; conditions: in vivo, ip; mouse, e.p.; 7 days observation
Method: as §1

[5] = tested on: mouse; experiment: as above; assay type: in vivo; conditions: 4 M + 4 F, 7 days observation
Method: as §1

[6] = tested on: lipid metabolism; experiment: restoring to normal any imbalance in the lipid metabolism / summary of the pharmacological trials; assay type: in vivo
From the text: as §2
The model of erucic acid-induced myocardial steatosis is used to compare the effect of the 14 day-administration of 250 and 125 mg/kg e.p. of L-carnitine with that of L-carnitine phosphorylethanolamide at the same doses for the same study period.
Moreover other tests were carried out using a model of olive-oil induced hyperlipemia in the rat. L-carnitine was administered at 250 and 125 mg/kg endoperitoneally for 14 days, as was L-carnitine phosphorylethanolamide at 250 and 125 mg/kg endoperitoneally for 14 days. The following parameters were evaluated:
Moreover it is efficacious in re-establishing the balance between fatty acids' oxidation and uptake, and in stimulating acetyl-CoA's oxidation in Kreb's cycle. Important to underline is that to these actions, another, of a more ubiquitary nature, must be added. […]

[7] = 250 mg/kg endoperitoneally, 5 days, statistically significant (Student's t test)
[8] = Table 1, 250 mg/kg e.p., 5 days, P < 0.001

In the case of `C[N+](C)(C)CC(O)CC(=O)NCCOP(=O)([O-])O` [L-carnitine phosphorylethanolamide], the Main effects observed [1] is reported as “apparently normal”, the ATP values [2, 7] is reported as “brought back to normal the ATP values” and the “accumulation of triglycerides in the myocardium” value [2, 7] is reported as “reduced the accumulation of triglycerides in the myocardium”. The cholesterol levels [2, 7] was “lowered the cholesterol levels”, the “ATP, change vs controls” value [2, 8] was “+76.9%” and the “Triglycerides, change vs controls” value [2, 8] was -47.9%. The “Cholesterol, change vs controls” value ([2]; Table 1, 250 mg/kg e.p., 5 days, P < 0.01) was -60.9%, the Cholesterol ([2]; Table 1, 250 mg/kg e.p., 5 days, spread of treated group ±7.16 on next line, P < 0.01) was 12.8 mg/g of fresh tissue and the ATP ([2]; Table 1, 250 mg/kg e.p., 5 days, spread of treated group ±5.78 on next line, P < 0.001) was 60.5 nM/g proteines. For the same molecule, the “solubility in most of the common organic solvents” value ([3]; common organic solvents) was “insoluble in most of the common organic solvents”, the solubility ([3]; water and methanol at room temperature, warm ethanol) was “Soluble in water and methanol at room temperature and in warm ethanol” and the hygroscopicity ([3]; white, amorphous powder, inner salt) was “hygroscopic”. For the same molecule, the LD50 at 168 h [4] was over 8000 mg/kg, the “N° of dead animals” value ([5]; 1000 mg/kg e.p.) was 0 and the “N° of dead animals” value ([5]; 2000 mg/kg e.p.) was 0. The “N° of dead animals” value ([5]; 4000 mg/kg e.p.) was 0, the “N° of dead animals” value ([5]; 8000 mg/kg e.p.) was 0 and the “normalization of myocardial hypertriglyceridemia and hyperlipemia, induced by erucic acid treatment” value [6] was “extremely active”. For the same molecule, the “re-establishing the balance between fatty acids' oxidation and uptake, and stimulating acetyl-CoA's oxidation in Kreb's cycle” value [6] was “efficacious”.

For `C[N+](C)(C)C[C@H](O)CC(=O)[O-]` [L-carnitine], the “Triglycerides, change vs controls” value ([2]; Table 2, 250 mg/kg endoperitoneally for 5 days, P < 0.001) was -60.1%, the “Cholesterol, change vs controls” value ([2]; Table 2, 250 mg/kg endoperitoneally for 5 days, n.s.) was -34.5% and the Cholesterol ([2]; Table 2, 250 mg/kg endoperitoneally for 5 days, spread of treated group ±7.01 on next line, n.s.) was 24.7 mg/g of fresh tissue. It also gave an ATP ([2]; Table 2, 250 mg/kg endoperitoneally for 5 days, spread of treated group ±20.28 on next line, P < 0.05) of 57.3 nM/g proteines.
